Laboratory results taken from patent US11660293B2, “Substituted 2-azabicyclo[3.1.1]heptane and 2-azabicyclo[3.2.1]octane derivatives as orexin receptor antagonists” (Chronos Therapeutics Limited, priority 2017, dated 2023).

Experiments:
[1] = biological target: human Orexin type 2 receptors (Homo sapiens (Human), UniProt O43614); assay: Scintillation Proximity Assay (SPA) binding assay, [3H]EMPA displacement, HEK-hOX2 membranes
[2] = biological target: human Orexin type 1 receptors (Homo sapiens (Human), UniProt O43613); assay: Scintillation Proximity Assay (SPA) binding assay, [3H]SB-674042 displacement, CHO-hOX1 membranes
Chain of human Orexin type 1 receptors (O43613 whole entry): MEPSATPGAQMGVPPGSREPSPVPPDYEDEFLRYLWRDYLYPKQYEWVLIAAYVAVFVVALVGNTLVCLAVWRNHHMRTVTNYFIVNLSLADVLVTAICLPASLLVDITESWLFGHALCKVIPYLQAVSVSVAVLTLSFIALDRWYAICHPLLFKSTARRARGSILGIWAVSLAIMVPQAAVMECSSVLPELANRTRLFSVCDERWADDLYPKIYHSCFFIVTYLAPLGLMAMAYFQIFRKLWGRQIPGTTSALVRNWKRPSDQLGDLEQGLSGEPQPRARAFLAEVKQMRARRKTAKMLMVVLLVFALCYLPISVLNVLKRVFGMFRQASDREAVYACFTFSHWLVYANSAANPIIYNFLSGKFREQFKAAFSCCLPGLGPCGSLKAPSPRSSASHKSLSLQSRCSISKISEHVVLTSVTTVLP

Chain of human Orexin type 2 receptors (O43614 whole entry): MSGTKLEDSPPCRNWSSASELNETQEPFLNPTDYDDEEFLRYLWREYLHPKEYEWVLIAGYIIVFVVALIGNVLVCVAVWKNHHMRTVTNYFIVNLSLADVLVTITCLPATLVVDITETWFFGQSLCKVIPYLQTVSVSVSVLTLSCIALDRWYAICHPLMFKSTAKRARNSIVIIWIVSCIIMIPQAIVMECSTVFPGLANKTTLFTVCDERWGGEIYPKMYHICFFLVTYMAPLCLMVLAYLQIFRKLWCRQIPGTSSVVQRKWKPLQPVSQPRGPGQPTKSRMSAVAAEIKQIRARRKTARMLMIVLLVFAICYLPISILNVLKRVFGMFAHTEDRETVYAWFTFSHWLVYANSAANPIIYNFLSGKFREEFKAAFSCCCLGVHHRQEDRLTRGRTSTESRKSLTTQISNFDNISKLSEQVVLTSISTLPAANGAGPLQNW

SMILES	OX2 pKi (SPA binding) ([1]; Table 2, [3H]EMPA 2 nM)	OX1 pKi (SPA binding) ([2]; Table 2, [3H]SB-674042 2 nM)	further results
Cc1ccc(-n2nccn2)c(C(=O)N2C3CC(C3)[C@@H](C)C2CNc2ncc(C(F)(F)F)cn2)n1 (single isomer, unassigned) [Example 194, N-{[(3S,4R) or (3R,4S)-4-methyl-2-[6-methyl-3-(2H-1,2,3-triazol-2-yl)pyridine-2-carbonyl]-2-azabicyclo[3.1.1]heptan-3-yl]methyl}-5-(trifluoromethyl)pyrimidin-2-amine]	4.66	7.51	–
C[C@@H]1C2CC(C2)N(C(=O)c2cc(F)ccc2-n2nccn2)C1CNc1ccc(C(F)(F)F)cn1 (mixture of isomers) [Example 190, cis-N-({2-[5-fluoro-2-(2H-1,2,3-triazol-2-yl)benzoyl]-4-methyl-2-azabicyclo[3.1.1]heptan-3-yl}methyl)-5-(trifluoromethyl)pyridin-2-amine]	4.98	7.8	–
C[C@@H]1C2CC(C2)N(C(=O)c2cc(Cl)ccc2-n2nccn2)C1CNc1cnc2cc(F)ccc2n1 (mixture of isomers) [Example 207, cis-N-({2-[5-chloro-2-(2H-1,2,3-triazol-2-yl)benzoyl]-4-methyl-2-azabicyclo[3.1.1]heptan-3-yl}methyl)-6-fluoroquinoxalin-2-amine]	6.44	8.46	–
C[C@@H]1C2CC(C2)N(C(=O)c2cc(C#N)ccc2-n2nccn2)C1COc1ccc(F)cc1 (mixture of isomers) [Example 142, cis-3-{3-[(4-fluorophenoxy)methyl]-4-methyl-2-azabicyclo[3.1.1]heptane-2-carbonyl}-4-(2H-1,2,3-triazol-2-yl)benzonitrile]	6.33	7	–
Cc1ccc(-c2nccs2)c(C(=O)N2C3CC(C3)[C@H](C)C2COc2ccc(F)cc2)n1 (mixture of isomers) [Example 106, trans-3-[(4-fluorophenoxy)methyl]-4-methyl-2-[6-methyl-3-(1,3-thiazol-2-yl)pyridine-2-carbonyl]-2-azabicyclo[3.1.1]heptane]	–	–	OX2 pKi (SPA binding) ([1]; Table 1, [3H]EMPA 2 nM): 6.12; OX1 pKi (SPA binding) ([2]; Table 1, [3H]SB-674042 2 nM): 8.16
Cc1ccc(-c2nccs2)c(C(=O)N2C3CC(C3)[C@@H](C)C2COc2ccc(F)cc2)c1 (mixture of isomers) [Example 98, cis-3-[(4-fluorophenoxy)methyl]-4-methyl-2-[5-methyl-2-(1,3-thiazol-2-yl)benzoyl]-2-azabicyclo[3.1.1]heptane]	–	–	OX2 pKi (SPA binding) ([1]; Table 1, [3H]EMPA 2 nM): 6.75; OX1 pKi (SPA binding) ([2]; Table 1, [3H]SB-674042 2 nM): 7.86
Cc1ccc(-c2ccccn2)c(C(=O)N2C3CC(C3)[C@@H](C)C2COc2ccc(F)cn2)n1 (mixture of isomers) [Example 131, cis-2′-(3-{[(-fluoropyridin-2-yl)oxy]methyl}-4-methyl-2-azabicyclo[3.1.1]heptane-2-carbonyl)-6′-methyl-2,3′-bipyridine]	6.1	7.02	–
Cc1ccc(OCC2CC3CC(C3)N2C(=O)c2nc(C)sc2-c2ccccc2)cc1 (stereo not shown) [Example 48]	–	–	OX2 pKi (SPA binding) ([1]; Table 1, [3H]EMPA 2 nM): 6.53; OX1 pKi (SPA binding) ([2]; Table 1, [3H]SB-674042 2 nM): 7.45
Cc1ccc(-n2nccn2)c(C(=O)N2C3CC(C3)[C@H](C)C2COc2nc3ccc(F)cc3s2)n1 (stereo partly drawn) [Example 110, trans-6-fluoro-2-({4-methyl-2-[6-methyl-3-(2H-1,2,3-triazol-2-yl)pyridine-2-carbonyl]-2-azabicyclo[3.1.1]heptan-3-yl}methoxy)-1,3-benzothiazole]	–	–	OX2 pKi (SPA binding) ([1]; Table 1, [3H]EMPA 2 nM): 6.06; OX1 pKi (SPA binding) ([2]; Table 1, [3H]SB-674042 2 nM): 7
Cc1ccc(-n2nccn2)c(C(=O)N2C3CC(C3)[C@@H](C)C2CNc2cnc3cc(F)c(F)cc3n2)n1 (mixture of isomers) [Example 201, cis-6.7-difluoro-N-({4-methyl-2-[6-methyl-3-(2H-1,2,3-triazol-2-yl)pyridine-2-carbonyl]-2-azabicyclo[3.1.1]heptan-3-yl}methyl)quinoxalin-2-amine]	6.55	7.97	–
C[C@@H]1C2CC(C2)N(C(=O)c2cc(F)ccc2-n2nccn2)C1CNc1nc2cccnc2s1 (mixture of isomers) [Example 228, cis-N-({2-[5-fluoro-2-(2H-1,2,3-triazol-2-yl)benzoyl]-4-methyl-2-azabicyclo[3.1.1]heptan-3-yl}methyl)-[1,3]thiazolo[5,4-b]pyridin-2-amine]	5.04	7.94	–
Cc1ccc(-n2nccn2)c(C(=O)N2C3CC(C3)[C@H](C)C2CNc2ncc3ccccc3n2)n1 (stereo partly drawn) [Example 149, trans-N-({4-methyl-2-[6-methyl-3-(2H-,2,3-triazol-2-yl)pyridine-2-carbonyl]-2-azabicyclo[3.1.1]heptan-3-yl}methyl)quinazolin-2-amine]	5.72	6.82	–
Cc1cnc(NCC2[C@H](C)C3CC(C3)N2C(=O)c2nc(C)ccc2-n2nccn2)cn1 (mixture of isomers) [Example 216, cis-5-methyl-N-({4-methyl-2-[6-methyl-3-(2H-1,2,3-triazol-2-yl)pyridine-2-carbonyl]-2-azabicyclo[3.1.1]heptan-3-yl}methyl)pyrazin-2-amine]	4.62	6.94	–
C[C@@H]1C2CC(C2)N(C(=O)c2cc(Cl)ccc2-n2nccn2)C1CNc1cnc2ncccc2n1 (mixture of isomers) [Example 206, cis-N-({2-[5-chloro-2-(2H-1,2,3-triazol-2-yl)benzoyl]-4-methyl-2-azabicyclo[3.1.1]heptan-3-yl}methyl)pyrido[2,3-b]pyrazin-2-amine]	5.06	7.79	–
Cc1ccc(-n2nccn2)c(C(=O)N2C3CC(C3)[C@@H](C)C2CNc2nc3cccnc3s2)n1 (stereo partly drawn) [Example 184, cis-N-({4-methyl-2-[6-methyl-3-(2H-1,2,3-triaozl-2-yl)pyridine-2-carbonyl]-2-azabicyclo[3.1.1]heptan-3-yl}methyl)-[1,3]thiazolo[5,4-b]pyridin-2-amine]	5.07	8.08	–
Cc1nc(C(=O)N2C(COc3ccc(F)cc3)CC3CC2C3)c(-c2ccc(F)cc2)s1 (stereo not shown) [Example 50]	–	–	OX2 pKi (SPA binding) ([1]; Table 1, [3H]EMPA 2 nM): 6.52; OX1 pKi (SPA binding) ([2]; Table 1, [3H]SB-674042 2 nM): 7.66
Cc1nc(C(=O)N2C(COc3ccc(F)cc3)CC3CC2C3)c(-c2ccccc2F)s1 (stereo not shown) [Example 40]	–	–	OX2 pKi (SPA binding) ([1]; Table 1, [3H]EMPA 2 nM): 6.19; OX1 pKi (SPA binding) ([2]; Table 1, [3H]SB-674042 2 nM): 7.33
C[C@@H]1C2CC(C2)N(C(=O)c2cc(F)ccc2-n2nccn2)C1CNc1nc2ccc(F)cc2s1 (single isomer, unassigned) [Example 170, 6-fluoro-N-({(3R,4S) or (3S,4R)2-[5-fluoro-2-(2H-1,2,3-triazol-2-yl)benzoyl]-4-methyl-2-azabicyclo[3.1.1]heptan-3-yl}methyl)-1,3-benzothiazol-2-amine]	5.99	8.86	–
Cc1nc(C(=O)N2C3CC(C3)[C@H](C)[C@@H]2COc2cc3ccccc3cn2)c(-c2ccccc2)s1 (single isomer, unassigned) [Example 89, 3-{[(3S,4R or 3R,4S)-4-methyl-2-(2-methyl-5-phenyl-1,3-thiazole-4-carbonyl)-2-azabicyclo[3.1.1]heptan-3-yl]methoxy}isoquinoline]	–	–	Ki ([1]; Table 1, [3H]EMPA 2 nM, read-out: OX2 pKi (SPA binding) (converted)): 1000 nM; Ki ([2]; Table 1, [3H]SB-674042 2 nM, read-out: OX1 pKi (SPA binding) (converted)): 1.38 nM
C[C@@H]1C2CC(C2)N(C(=O)c2cc(Cl)ccc2-n2nccn2)C1CNc1cnc2cc(F)ccc2n1 (single isomer, unassigned) [Example 209, N-{[(3R,4R) or (3S,4R)-2-[5-chloro-2-(2H-1,2,3-triazol-2-yl)benzoyl]-4-methyl-2-azabicyclo[3.1.1]heptan-3-yl]methyl}-6-fluoroquinoxalin-2-amine]	6.8	8.74	–
Cc1nc(C(=O)N2C3CC(C3)[C@@H](C)C2COc2ccc(F)cc2)c(-n2cccn2)s1 (mixture of isomers) [Example 141, cis-3-[(4-fluorophenoxy)methyl]-4-methyl-2-[2-methyl-5-(1H-pyrazol-1-yl)-1,3-thiazole-4-carbonyl]-2-azabicyclo[3.1.1]heptane]	6.45	6.91	–
C[C@@H]1C2CC(C2)N(C(=O)c2cc(Cl)ccc2-n2nccn2)C1CNc1cnc(C(F)(F)F)cn1 (mixture of isomers) [Example 203, cis-N-({2-[5-chloro-2-(2H-1,2,3-triazol-2-yl)benzoyl]-4-methyl-2-azabicyclo[3.1.1]heptan-3-yl}methyl)-5-(trifluoromethyl)pyrazin-2-amine]	5.05	8.17	–
Cc1nc(C(=O)N2C3CC(C3)[C@@H](C)C2CNc2nc3ccc(F)cc3s2)c(-c2ncccn2)s1 (mixture of isomers) [Example 162, cis-6-fluoro-N-({4-methyl-2-[2-methyl-5-(pyrimidin-2-yl)-1,3-thiazole-4-carbonyl]-2-azabicyclo[3.1.1]heptan-3-yl]methyl)-1,3-benzothiazol-2-amine]	5.59	8.83	–
C[C@@H]1C2CC(C2)N(C(=O)c2cc(Cl)ccc2-n2nccn2)C1CNc1nc2cccnc2s1 (single isomer, unassigned) [Example 236, N-{[(3R,4S) or (3S,4R)-2-[5-chloro-2-(2H-1,2,3-triazol-2-yl)benzoyl]-4-methyl-2-azabicyclo[3.1.1]heptan-3-yl]methyl}-[1,3]thiazolo[5,4-b]pyridin-2-amine]	5.7	8.99	–
C[C@@H]1C2CC(C2)N(C(=O)c2cc(F)ccc2-n2nccn2)C1CNc1ncc(C2CC2)cn1 (stereo partly shown) [Example 260]	4.89	7.45	–
Cc1ccc(-n2nccn2)c(C(=O)N2C3CC(C3)[C@H](C)C2COc2ccc(F)cc2)n1 (stereo partly drawn) [Example 103, trans-3-[(4-fluorophenoxy)methyl]-4-methyl-2-[6-methyl-3-(2H-1,2,3-triazol-2-yl)pyridine-2-carbonyl]-2-azabicyclo[3.1.1]heptane]	–	–	OX2 pKi (SPA binding) ([1]; Table 1, [3H]EMPA 2 nM): 5.6; OX1 pKi (SPA binding) ([2]; Table 1, [3H]SB-674042 2 nM): 8
